Measured values published in patent US20070111988A1, “Selective estrogen receptor modulators” (ELI LILLY AND COMPANY, priority 2004, published 2007).

Columns and labels:
[1] = tested on: Ishikawa human endometrial tumor cells; assay: Ishikawa Cell Proliferation Assay, agonist mode (alkaline phosphatase readout); type: cell-based; settings: for stimulation compared with tamoxifen: compound alone; for Emax: Homo sapiens, Ishikawa, versus the response to tamoxifen, read-out: relative % efficacy
Protocol: (§1) Ishikawa Cell Proliferation Assay: This assay measures cell proliferation (using an alkaline phosphatase readout) in both an agonist mode in the presence of a compound of the present invention alone, and in an antagonist mode in which the ability of a compound of the present invention to block estradiol stimulation of growth is measured.
(§2) Ishikawa human endometrial tumor cells are maintained in MEM (minimum essential medium, with Earle's salts and L-Glutamine, Gibco BRL, Gaithersburg, Md.), supplemented with 10% fetal bovine serum (FBS) (V/V), (Gibco BRL). One day prior to assay, growth media is changed to assay medium, DMEM/F-12 (3:1) (Dulbecco's Modified Eagle Medium:Nutrient Mixture F-12, 3:1 Mixture, phenol red-free, Gibco BRL) supplemented with 5% dextran coated charcoal stripped fetal bovine serum (DCC-FBS) (Hyclone, Logen, Utah), L-Glutamine (2 mM), MEM sodium pyruvate (1 mM), HEPES (N-[2-hydroxyethyl]piperazine-N′-[2-ethanesulfonic acid] 2 mM) all from Gibco BRL). After an overnight incubation, Ishikawa cells are rinsed with Dulbecco's Phosphate Buffered Saline (1×) (D-PBS) without Ca^+2 and Mg^+2 (Gibco BRL), and trypsinized by a 3 minute incubation with 0.25% Trypsin/EDTA, phenol red-free (Gibco BRL). Cells are resuspended in assay medium and adjusted to 250,000 cells/mL. Approximately 25,000 cells in a 100 ul media are added to flat-bottom 96 wells microculture plates (Costar 3596) and incubated at 37° C. in a 5% CO2 humidified incubator for 24 hours. The next day, serial dilutions of compounds are prepared in assay medium (at 6 times the final concentration in the assay). The assay is run in dual mode, agonist and antagonist modes.
For the agonist mode, plates receive 25 μl/well of assay medium followed by 25 μl/well of a diluted compound of the present invention (at 6× the final concentrations). For the antagonist mode, plates receive 25 μl/well of 6 nM E2 (β-Estradiol, Sigma, St. Louis, Mo.) followed by 25 μl/well of a diluted compound of the present invention (at 6× the final concentrations). After an additional 48-hour incubation at 37° C. in a 5% CO2 humidified incubator, media is aspirated from wells and 100 μl fresh assay medium is added to each microculture. Serial dilutions of compounds are prepared and added to the cells as described above. After an additional 72 hour incubation at 37° C. in a 5% CO2 humidified incubator, the assay is quenched by removing media and rinsing plates twice in Dulbecco's Phosphate Buffered Saline (1×) (D-PBS) (Gibco BRL). The plates are dried for 5 minutes and frozen at −70° C. for at least 1 hour. The plates are then removed from the freezer and allowed to thaw at room temperature. To each well, 100 μl of 1-Step™ PNPP (Pierce Chemical Company, Rockford, Ill.) is added. After a 20-minute incubation, plates are read on a spectophotometer at 405 nm.
(§3) The data is fitted to a linear interpolation to derive EC50 (for agonist mode) or IC50 (for antagonist mode) values. For the antagonist mode, a % efficacy for each compound is calculated versus E2 (1 nM) alone. For the agonist mode, a % efficacy for each compound is calculated versus the response to tamoxifen.

[2] = tested on: estrogenic stimulation of the uterus in immature female rats; assay: 3-Day Rat Uterus Antagonist Assay; type: in vivo; settings: 3 days, with E2 0.1 mg/kg; for inhibition of the estrogen-induced response (uterine weight/body weight ratio): 1.0 mg/kg oral; for % antagonism / ED50: oral
From the text: 3-Day Rat Uterus Antagonist Assay: This model for uterine antagonism utilizes immature (3 week old) female rats that are highly sensitive to estrogenic stimulation of the uterus given that their circulating estrogen levels are prepubertal. The uteri from immature rats are fully responsive to exogenous estrogen, yet are quiescent in the absence of exogenous estrogen. Administration of exogenous estrogen to immature rats produces a reliable elevation of uterine weight, which can be used to study uterine antagonist effects. The rats are treated with both estradiol and 4 different concentrations of a compound of the present invention for 3 days and then uterine wet weights are measured.
Nineteen to twenty-one day old (or 45-50 g) female rats are orally treated with E2 (0.1 mg/kg, a maximal stimulatory estrogenic stimulus for reliably increasing uterine weight) and 10, 1.0, 0.1 and 0.01 mg/kg test compound for 3 days, 6 rats per group. Test compounds are dissolved in 20% β-hydroxycyclodextrin and administered by oral gavage in a volume of 0.2 mL daily (15 min. prior to the ethynyl estradiol gavage). A vehicle control, E2 alone and E2+raloxifene are also done as controls. The animals are fasted overnight following the final dose. On the following morning, the animals are weighed, then euthanized (by carbon dioxide asphyxiation) and the uteri rapidly collected (via a mid-line ventral incision) and weighed.
Uterine weight/body weight ratios (UWR) are calculated for each animal. The percent inhibition of the estrogen-induced response is then calculated by the following formula: percent inhibition=100×(UWRestrogen−UWRtest compound/UWRestrogen−UWRcontrol). ED50 values are derived from a semi-log regression analysis of the linear aspect of the dose response curve. Both the UWR data and the percent inhibition data are statistically analyzed by one way analysis of variance (ANOVA) with post-hoc testing by Fisher's PLSD when indicated by a p≦0.05. Statistical analyses are performed using the Statview® 4.0 software package.

[3] = tested on: mature F344 female rats; assay: 10-Day Rat Hormone (Ovarian Stimulation) Screen; type: in vivo; settings: oral gavage 10 days, serum about 2 hours after the 10th dose, RIA
Protocol: 10-Day Rat Hormone (Ovarian Stimulation) Screen: An initial, first screen for ovarian toxicity is conducted using a 10-day rat hormone study to measure estradiol and luteinizing hormone levels after compound administration. This screen is conducted by administering compound by oral gavage for 10 days to mature (9-10 week old) F344 female rats. Trunk blood is collected by rapid decapitation for evaluation of LH and estradiol levels approximately 2 hours after the 10th dose. Serum, obtained by centrifugation, is removed and stored frozen below −60° C. until assayed. Serum levels of LH and estradiol are measured using radioimmunoassay (RIA) methods.
Rat LH primary antibody and reference preparations (rat LH:RP-3) are obtained from Dr. A. F. Parlow, Director, Pituitary Hormones and Antisera Center, Harbor-UCLA Medical Center, Torrance, Calif. The LH assay upper limits of detection are 30 ng/mL and the lower limits of detection are 0.1 ng/mL for the 100 μl samples.
E2 Clinical Assays. DiaSorin s.r.l., Saluggia (Vercelli), Italy. The upper limit of detection is 1000 pg/mL and the lower limit of detection is 5 pg/mL.

[4] = tested on: uterus of mature, ovariectomized rats; assay: 4-Day OVX Rat Uterine Agonist Assay; type: in vivo; settings: 4 days of treatment, 3 doses
Protocol: Seventy-five day old rats are ovariectomized and treatment is started 14 days later when circulating estradiol levels have reached minimal levels. After 4 days of treatment with 3 doses of a compound of the present invention, (6 rats per group) body weight, uterine wet weight and uterine eosinophil peroxidase (EPO) activity are measured. Cholesterol levels are also measured to compare relative ability to lower cholesterol with other SERMs. If there is any question of uterine stimulation, histological examination will determine epithelial cell height.

[5] = tested on: Ishikawa human endometrial tumor cells; assay: Ishikawa Cell Proliferation Assay, antagonist mode (block of estradiol stimulation); type: cell-based; settings: for IC50: 1 nM E2; for Emax: versus E2 (1 nM) alone, read-out: % efficacy
Protocol: as §1, §2
For the agonist mode, plates receive 25 μl/well of assay medium followed by 25 μl/well of a diluted compound of the present invention (at 6× the final concentrations). For the antagonist mode, plates receive 25 μl/well of 6 nM E2 (β-Estradiol, Sigma, St. Louis, Mo.) followed by 25 μl/well of a diluted compound of the present invention (at 6× the final concentrations). After an additional 48-hour incubation at 37° C. in a 5% CO2 humidified incubator, media is aspirated from wells and 100 μl fresh assay medium is added to each microculture. Serial dilutions of compounds are prepared and added to the cells as described above. […] After a 20-minute incubation, plates are read on a spectophotometer at 405 nm.
as §3

| SMILES | stimulation compared with tamoxifen [1] | inhibition of the estrogen-induced response (uterine weight/body weight ratio) [2] | further results |
| --- | --- | --- | --- |
| OCc1ccc2c(c1)OC(c1ccc(OCCN3CCCCC3)cc1)c1c-2ccc2cc(O)ccc12 (racemic) [Example 37, 8-Hydroxymethyl-5-[4-(2-piperidin-1-yl-ethoxy)-phenyl]-5H-6-oxa-chrysen-2-ol] | less stimulatory than tamoxifen | inhibit the estrogen-induced response | % antagonism [2]: 89%; ED50 [2]: 0.06 mpk; circulating LH levels [3]: did not significantly elevate; circulating estradiol levels [3]: did not significantly elevate |
| Cl.NC(=O)c1cccc(-c2ccc3cc(O)ccc3c2Oc2ccc(OCCN3CCCCC3)cc2)c1 [Example 1, 3-{6-Hydroxy-1-[4-(2-piperidin-1-yl-ethoxy)-phenoxy]-naphthalen-2-yl}-benzamide hydrochloride] | less stimulatory than tamoxifen | – | – |
| COC(=O)c1cccc(-c2ccc3cc(O)ccc3c2Oc2ccc(OCCN3CCCCC3)cc2)c1.Cl [Example 2, 3-{6-Hydroxy-1-[4-(2-piperidin-1-yl-ethoxy)-phenoxy]-naphthalen-2-yl}-benzoic acid methyl ester hydrochloride] | less stimulatory than tamoxifen | – | – |
| O=C(O)C(F)(F)F.O=C(O)c1cccc(-c2ccc3cc(O)ccc3c2Oc2ccc(OCCN3CCCCC3)cc2)c1 [Example 3, 3-{6-Hydroxy-1-[4-(2-piperidin-1-yl-ethoxy)-phenoxy]-naphthalen-2-yl}-benzoic acid trifluoroacetate] | less stimulatory than tamoxifen | – | – |
| COC(=O)c1ccc(-c2ccc3cc(O)ccc3c2Oc2ccc(OCCN3CCCCC3)cc2)cc1.Cl [Example 5, 4-{6-Hydroxy-1-[4-(2-piperidin-1-yl-ethoxy)-phenoxy]-naphthalen-2-yl}-benzoic acid methyl ester hydrochloride] | less stimulatory than tamoxifen | inhibit the estrogen-induced response | uterine eosinophil peroxidase (EPO) activity [4]: did not cause any dose-related statistically significant increase in EPO activity; circulating LH levels [3]: did not significantly elevate; circulating estradiol levels [3]: did not significantly elevate |
| Cl.O=C(O)c1ccc(-c2ccc3cc(O)ccc3c2Oc2ccc(OCCN3CCCCC3)cc2)cc1 [Example 6, 4-{6-Hydroxy-1-[4-(2-piperidin-1-yl-ethoxy)-phenoxy]-naphthalen-2-yl}-benzoic acid hydrochloride] | less stimulatory than tamoxifen | – | – |
| CN(C)C(=O)c1cccc(-c2ccc3cc(O)ccc3c2Oc2ccc(OCCN3CCCCC3)cc2)c1.Cl [Example 8, 3-{6-Hydroxy-1-[4-(2-piperidin-1-yl-ethoxy)-phenoxy]-naphthalen-2-yl}-N,N-dimethylbenzamide, hydrochloride salt] | less stimulatory than tamoxifen | inhibit the estrogen-induced response | Emax [1]: 15%; IC50 [5]: 9 nM; Emax [5]: 95% |
| Cl.O=C1NCc2cc(-c3ccc4cc(O)ccc4c3Oc3ccc(OCCN4CCCCC4)cc3)ccc21 [Example 11, 5-{6-Hydroxy-1-[4-(2-piperidin-1-yl-ethoxy)-phenoxy]-naphthalen-2-yl}-2,3-dihydro-isoindol-1-one Hydrochloride] | less stimulatory than tamoxifen | inhibit the estrogen-induced response | % antagonism [2]: 79%; ED50 [2]: 0.3 mpk |
| O=C(O)C(F)(F)F.O=C(O)c1cccc2c1OC(c1ccc(OCCN3CCCCC3)cc1)c1c-2ccc2cc(O)ccc12 (centres unmarked) [Example 35, 2-Hydroxy-5-[4-(2-piperidin-1-yl-ethoxy)-phenyl]-5H-6-oxa-chrysene-7-carboxylic acid trifluoroacetate] | less stimulatory than tamoxifen | – | Emax [1]: 25%; IC50 [5]: 36 nM; Emax [5]: 92% |
| COc1ccc2c3c(ccc2c1)-c1ccc(CO)cc1OC3c1ccc(OCCN2CCCCC2)cc1 (centres unmarked) [Example 36, {2-Methoxy-5-[4-(2-piperidin-1-yl-ethoxy)-phenyl]-5H-6-oxa-chrysen-8-yl}-methanol] | less stimulatory than tamoxifen | – | – |
| OCc1ccc2c(c1)OC(c1ccc(OCCN3CCCCC3)cc1)c1c-2ccc2cc(O)ccc12 (centres unmarked) [Example 39, 8-Hydroxymethyl-5-[4-(2-piperidin-1-yl-ethoxy)-phenyl]-5H-6-oxa-chrysen-2-ol] | less stimulatory than tamoxifen | – | – |
| Cl.OCc1ccc(-c2ccc3cc(O)ccc3c2Oc2ccc(OCCN3CCCCC3)cc2)cc1 [Example 41, 6-(4-Hydroxymethyl-phenyl)-5-[4-(2-piperidin-1-yl-ethoxy)-phenoxy]-naphthalen-2-ol, hydrochloride] | less stimulatory than tamoxifen | – | – |
| COc1ccc2c(Oc3ccc(OCCN4CCCCC4)cc3)c(-c3ccc(C(C)(C)O)cc3)ccc2c1 [Example 44] | less stimulatory than tamoxifen | – | – |
